{"source": "patent US10464957B2", "about": "“Oxidized lipids and methods of use thereof” (Vascular Biogenics Ltd., priority 2014, dated 2019)", "key": {"NASH-induced mice": {"test_system": "NASH-induced mice", "test": "NASH and liver fibrosis mouse model (STZ + HFD), liver histology", "format": "in vivo", "description": "Neonatal male mice exposed to low-dose streptozotocin (STZ) develop liver steatosis with diabetes. Continuous high fat diet (HFD) increases lobular inflammation with foam cell-like macrophages, showing nonalcoholic steatohepatitis (NASH) pathology. NASH was induced in 40 male mice by a single subcutaneous injection of 200 μg per mouse of STZ two days after birth and feeding HFD [57 kcal % fat]) from four weeks of age. Vehicle, VB-703 (4 mg/kg), or telmisartan (10 mg/kg) as positive control, were administered once daily for three weeks, starting from six weeks of age. Mice were sacrificed at nine weeks of age.\nLiver pathology was used to determine the effect of VB-703 on liver inflammation and fibrosis. Histology slides were stained with hematoxylin/eosin (H&E) to assess inflammation. The inflammation score was determined as follows:\nHistology slides were stained with Sirius red to determine collagen content as a marker for the extent of fibrosis."}, "[1]": {"test_system": "LPS (TLR4)-stimulated human monocytes (primary CD14+)", "test": "IL-12/23p40 ELISA, LPS (TLR4)-stimulated monocytes", "format": "cell-based", "details": "1 hour pretreatment, 24 hour 100 ng/ml LPS, ELISA of supernatant", "description": "Human monocytes were obtained as described in Example 9 and FIG. 9A-9B. Human monocytes were seeded (10^6/ml) and pretreated for 1 hour with VB-201, VB-701 or VB-702, followed by 24 hour activation with 100 ng/ml LPS from Escherichia coli strain 055:B5 (Sigma, Israel) (FIG. 9A) or 300 ng/ml Pam3CSK4 (InvivoGen, San Diego, Calif., USA) (FIG. 9B) to induce cytokine production. IL-12/23p40 concentration in the supernatant was then measured by ELISA (R&D systems, Cat. No. DY1240). Cells activated with solvent (0.5% ethanol in PBS) were used as a control."}, "[2]": {"test_system": "RANTES-induced signaling in human monocytes (primary CD14+)", "test": "RANTES-induced signaling, western blot", "format": "cell-based", "details": "RANTES 100 ng/ml for 15 minutes", "description": "Cells (10^6/ml) were pretreated for 20 min with VB-201 (1-hexadecyl-2-(4′-carboxy)butyl-glycero-3-phosphocholine or 1-hexadecyl-2-(4′-carboxybutyl)-glycerol-3-phosphocholine) or VB-701 at the doses indicated in FIG. 2, or with solvent (Sol), followed by 15 min activation with 100 ng/ml lipopolysaccharide (LPS) or were untreated (Unt). Cells were washed and resuspended in lysis buffer containing 1:100 dithiothreitol (DTT), phosphatase and protease inhibitors (Thermo Scientific). Samples were loaded onto a precast Criterion TGX gel (Bio-Rad, Hemel Hempstead, UK) and transferred onto nitrocellulose membrane. Blots were blocked with 5% milk or BSA in Tris buffered saline and Tween 20 (TBST) for 1 h, followed by incubation with primary and secondary antibodies. Membranes were developed using an ECL kit (Thermo Scientific). The following antibodies were used for immunoblotting:\nHuman monocytes were obtained, treated and analyzed by western blot as described in Example 9 and FIG. 7, except that cells were induced with RANTES (100 ng/ml; Cat. No. 300-06, PeproTech, Israel) for 15 minutes. […] Accordingly, VB-702 and VB-201 inhibit RANTES-induced signaling in human monocytes (primary CD14+)."}}, "data": [{"smiles": "CCCCCCCCCCC(CCCCCCCC)COC[C@H](COP(=O)([O-])OCC[n+]1ccccc1)OCCCCC(=O)O", "note": "(stereo partly drawn) [VB-703, (R)-1-(2′-octyl)dodecyl-2-(4′-carboxy)butyl-sn-glycero-3-phosphoric acid pyridiniumethyl ester]", "values": [{"measurement": "steatosis", "setting": "NASH-induced mice; VB-703 4 mg/kg once daily for three weeks", "value": "did not appear to significantly alter"}, {"measurement": "decrease of liver fibrosis compared to vehicle treated mice (Sirius red)", "setting": "NASH-induced mice; VB-703 4 mg/kg, telmisartan 10 mg/kg, once daily for three weeks", "value": 58, "unit": "%"}]}, {"smiles": "CCCCCCCCCCCCCCCCOCC(COP(=O)([O-])OCC[N+](C)(C)C)OCCCCC(=O)O", "note": "(stereo not shown) [VB-201, 1-hexadecyl-2-(4′-carboxy)butyl-glycero-3-phosphocholine, reference compound]", "values": [{"measurement": "IL-12p40 levels, LPS (TLR4)-stimulated", "setting": "[1]", "value": "inhibit"}, {"measurement": "formation of p-ERK induced by RANTES", "setting": "[2]", "value": "inhibit"}]}]}
